{"source": "patent US20050059615A1", "about": "“Transmucosal dosage forms for brain-targeted steroid chemical delivery systems” (priority 2003, published 2005)", "key": {"[1]": {"test": "Phase I clinical study: serum estradiol (E2) levels", "format": "in vivo, postmenopausal women", "conditions": "2.86 mg buccal, repeated dosing, both groups", "excerpt": "(§1) A brief evaluation of the results follows:"}, "castrated male rats [2]": {"test_system": "castrated male rats", "conditions": "single intravenous dose of 3 mg/kg; cited from earlier work"}, "testosterone": {"test_system": "testosterone", "test": "Phase I clinical study: serum testosterone", "format": "in vivo, postmenopausal women", "conditions": "for testosterone levels exceeding baseline values: 72 hours after the last dose", "excerpt": "as §1"}, "castrated male rats [3]": {"test_system": "castrated male rats", "test": "Male rat sexual (copulatory) behavior after orchidectomy", "format": "in vivo, Sprague Dawley rats", "procedure": "Adult male Sprague Dawley rats (300-400 g) from Charles River Hungary Ltd., Godollo, Hungary, were used. Animals were kept in community cages (4 animals/cage) in a climate-controlled room (23∀2EC), with a 14 hour light, 10 hour dark cycle of artificial lighting, using reversed light/dark cycle. […] These hormones were dissolved in sunflower oil.\nAfter establishment of basal behaviors as discussed below, selected animals were orchidectomized via a single midventral incision and were rehoused.\nAfter repeated testing of animals recovered from orchidectomy as discussed below, rats were divided into four groups and treated intravenously, via a single tail vein injection, with one of the following: group 1: control (27% hydroxypropyl-β-cyclodextrin); group 2: 0.03 mg/kg E2-CDS; group 3: 0.3 mg/kg E2-CDS; and group 4: 3 mg/kg E2-CDS.\nMating was observed during the dark cycle in a plexi observation cage in a room where only a dim red light was on. The male was placed in the observation cage 5 minutes prior to the female.\nThe following parameters were then measured: • Mount latency (ML): the time from the introduction of the female to the initial mount or intromission; • Intromission latency (IL): the time from introduction of the female to the first intromission; and • Ejaculatory latency (EL): the time from the first intromission to ejaculation.\nSessions were considered negative if IL exceeded 15 minutes.\nTo establish basal behavior, each male was tested every 5 days until four successive and consistent behavioral patterns were achieved. This pretesting lasted for about four weeks. Approximately half of the animals tested were deemed suitable for orchidectomy.\nTwenty-eight days after healing from orchidectomy, the animals were tested again (Day 0) and divided into 4 experimental groups. Only animals displaying ejaculation latencies greater than 15 minutes were included in the study.\nTests of male sexual behavior were conducted 3, 7, 14, 21, 28, 35 and 42 days after drug administration or until the effect disappeared, i.e. until no statistically significant difference was found between groups during two consecutive tests.\nBehavioral patterns and related times were recorded manually by skilled observers.\nBehavioral changes were analyzed using the Mann-Whitney U test (Siegel, Nonparametric Statistics for the Behavioral Sciences, New York; McGraw-Hill Book Company, Inc., 1956). The Fisher exact test was used for percentage comparisons (Zar, Biostatistical Analysis, Prentice Hall, Inc., Englewood Cliffs, N.J., 1974). Serum LH data were analyzed for each time and treatment group by analysis of variance (ANOVA) followed by Bonferroni posthoc test.\nThe testing described above was repeated using a dose of 0.03 mg/kg administered as a single i.v. injection, and a dose of 0.01 mg/kg with daily i.v. administration for 10 days. E2-CDS stock solution (40%) was diluted in 27% HPβCD solution.\nThe copulatory behavior of E2-CDS treated groups was compared to that of the HPβCD control group at 1, 3, 7, 14, and 21 days after i.v. drug administration in the 0.03 mg/kg group and at 1, 3, 7, 14 and 21 days after initial i.v. drug administration in the 0.01 mg/kg×10 days group."}, "2OHE1/16OHE1": {"test_system": "2OHE1/16OHE1", "test": "Phase I clinical study: urinary estrone and 2OHE1/16OHE1", "experimental": "(§2) Even more recently, in a Phase I clinical study of postmenopausal women, two different administration regimens of a 2.86 mg E2-CDS buccal delivery tablet were evaluated for safety and effects on hormone levels. The subjects were 12 healthy postmenopausal volunteers, divided into two groups of six. In Group A, women were dosed once daily for 10 days (10 doses); in Group B, women were dosed once every other day for 13 days (7 doses).\nUrine was collected for 24 hours on day 1 in both groups, and overnight (8 hours) on day 10 (Group A) and on day 13 (Group B), respectively, to determine the amounts of voided urinary estrone (E1), 2OHE1, 16OHE, and the ratios of 2OHE1 to 16OHE1."}, "[4]": {"test": "Phase I clinical study: safety and tolerance", "format": "in vivo, postmenopausal women", "conditions": "2.86 mg buccal, 12 subjects, both regimens", "excerpt": "as §1"}, "FSH [5]": {"test_system": "FSH", "test": "Phase I clinical study: FSH suppression", "format": "in vivo, postmenopausal women", "conditions": "for suppression in FSH levels: first 24 hours post-dose, 2.86 mg buccal", "excerpt": "as §1"}, "LH": {"test_system": "LH", "test": "Phase I clinical study: LH suppression", "format": "in vivo, postmenopausal women", "experimental": "as §2"}, "FSH [6]": {"test_system": "FSH", "test": "Earlier clinical trial, single 2.5 mg buccal E2-CDS: FSH suppression", "format": "in vivo, postmenopausal women", "conditions": "first 24 hour post-dose, 2.5 mg E2-CDS", "excerpt": "as §1"}, "prolactin": {"test_system": "prolactin", "test": "Phase I clinical study: prolactin", "format": "in vivo, postmenopausal women", "excerpt": "as §1"}, "[7]": {"test_system": "SHBG (Sex Hormone-binding Globulin)", "test": "Phase I clinical study: SHBG", "format": "in vivo, postmenopausal women", "excerpt": "as §1"}, "[8]": {"conditions": "0.01 mg/kg i.v. daily for 10 days"}, "[9]": {"conditions": "0.01 mg/kg i.v. daily for 10 days, by day 14"}, "[10]": {"conditions": "3.0 mg/kg single i.v., days 14, 21 and 28"}}}
{"smiles": "CN1C=CCC(C(=O)O[C@H]2CC[C@H]3[C@@H]4CCc5cc(O)ccc5[C@H]4CC[C@]23C)=C1", "note": "[E2-CDS, 17β-[(1-methyl-1,4-dihydro-3-pyridinyl)carbonyloxy]estra-1,3,5(10)-trien-3-ol]", "values": [{"measurement": "accumulation of trough E2 levels", "setting": "[1]", "value": "no signs of accumulation"}, {"measurement": "duration of improved masculine sexual behavior", "setting": "castrated male rats [2]", "value": 28, "unit": "days"}, {"measurement": "testosterone levels exceeding baseline values", "setting": "testosterone; Group A", "value": 14, "unit": "%"}, {"measurement": "testosterone levels exceeding baseline values", "setting": "testosterone; Group B", "value": 28, "unit": "%"}, {"measurement": "mean testosterone AUC24 lower than baseline AUC24 (=C0*24)", "setting": "testosterone; day 1, Group A", "value": 31.1, "unit": "%"}, {"measurement": "minimum serum testosterone concentration", "setting": "testosterone; day 1, Group A", "value": "1.3 ± 1.9", "unit": "ng/dL"}, {"measurement": "time to reach minimum testosterone levels", "setting": "testosterone; day 1, Group A", "value": "6.5 ± 11.7", "unit": "h"}, {"measurement": "mean testosterone AUC24 lower than baseline AUC24 (=C0*24)", "setting": "testosterone; day 1, Group B", "value": 23.0, "unit": "%"}, {"measurement": "minimum serum testosterone concentration", "setting": "testosterone; day 1, Group B", "value": "4.0 ± 3.9", "unit": "ng/dL"}, {"measurement": "time to reach minimum testosterone levels", "setting": "testosterone; day 1, Group B", "value": "7.3 ± 11.3", "unit": "h"}, {"measurement": "intromission frequency", "setting": "castrated male rats [3]; [8]", "value": "not increased significantly"}, {"measurement": "intromission latency", "setting": "castrated male rats [3]; [8]", "value": "reduced significantly"}, {"measurement": "mount frequency", "setting": "castrated male rats [3]; [8]", "value": "increased significantly"}, {"measurement": "mount latency", "setting": "castrated male rats [3]; [8]", "value": "reduced significantly"}, {"measurement": "intromission performance restored (% of animals)", "setting": "castrated male rats [3]; [9]", "value": 50, "unit": "%"}, {"measurement": "mounting performance restored (% of animals)", "setting": "castrated male rats [3]; [9]", "value": 67, "unit": "%"}, {"measurement": "effect on re-establishment of copulatory behavior", "setting": "castrated male rats [3]; 0.03 mg/kg single i.v.", "value": "no statistically significant effect"}, {"measurement": "sexual activity", "setting": "castrated male rats [3]; 0.03 mg/kg single i.v., repeated testing", "value": "improved sexual activity, but it was not statistically significant"}, {"measurement": "mounting performance restored (% of the animals)", "setting": "castrated male rats [3]; 0.3 mg/kg single i.v., by day 7", "value": 100, "unit": "%"}, {"measurement": "mount frequency", "setting": "castrated male rats [3]; 0.3 mg/kg single i.v., day 7", "value": "significantly increased"}, {"measurement": "mount latency", "setting": "castrated male rats [3]; 0.3 mg/kg single i.v., day 7 through day 28", "value": "sharply reduced"}, {"measurement": "mounting performance restored (% of the animals)", "setting": "castrated male rats [3]; 3.0 mg/kg single i.v., by day 14 and day 21", "value": 100, "unit": "%"}, {"measurement": "mount latency", "setting": "castrated male rats [3]; 3.0 mg/kg single i.v., day 7 through day 28", "value": "sharply reduced"}, {"measurement": "intromission performance", "setting": "castrated male rats [3]; 3.0 mg/kg single i.v., day 14 through day 28", "value": "improved in a statistically significant manner"}, {"measurement": "mount frequency", "setting": "castrated male rats [3]; 3.0 mg/kg single i.v., days 7, 14, 21 and 28", "value": "significantly increased"}, {"measurement": "intromission frequency", "setting": "castrated male rats [3]; [10]", "value": "statistically significant increase"}, {"measurement": "intromission latency", "setting": "castrated male rats [3]; [10]", "value": "decrease"}, {"measurement": "increase of the ratio of 2OHE1 to 16OHE1 during treatment", "setting": "2OHE1/16OHE1; Group A", "value": 63.6, "unit": "%"}, {"measurement": "increase of the ratio of 2OHE1 to 16OHE1 during treatment", "setting": "2OHE1/16OHE1; Group B", "value": 54.7, "unit": "%"}, {"measurement": "adverse events (AEs) in total", "setting": "[4]", "value": "seven"}, {"measurement": "seriousness of adverse events", "setting": "[4]", "value": "no serious AE was observed"}, {"measurement": "post-study FSH levels below screening/baseline values", "setting": "FSH [5]; 72 hours after the last dose", "value": "14-25%"}, {"measurement": "time of maximum FSH suppression", "setting": "FSH [5]; Group A", "value": "13.2±5.7", "unit": "hours post-dose"}, {"measurement": "time of maximum FSH suppression", "setting": "FSH [5]; Group B", "value": "11.8±5.8", "unit": "hours post-dose"}, {"measurement": "suppression in FSH levels", "setting": "FSH [5]; Group A", "value": 15, "unit": "%"}, {"measurement": "suppression in FSH levels", "setting": "FSH [5]; Group B", "value": 16, "unit": "%"}, {"measurement": "post-study LH levels", "setting": "LH; 72 hours after the last dose", "value": "not different any more from screening/baseline values"}, {"measurement": "time of maximum LH depression", "setting": "LH; Group A", "value": "7.3±5.3", "unit": "hours post-dose"}, {"measurement": "time of maximum LH depression", "setting": "LH; Group B", "value": "7.3±2.7", "unit": "hours post-dose"}, {"measurement": "maximum decrease in LH from baseline", "setting": "LH; first 24 hours, 2.86 mg buccal, Group A", "value": "13.8±4.9", "unit": "mIU/mL"}, {"measurement": "maximum decrease in LH from baseline", "setting": "LH; first 24 hours, 2.86 mg buccal, Group B", "value": "12.7±6.8", "unit": "mIU/mL"}, {"measurement": "decrease in LH levels from baseline", "setting": "LH; first 24 hours, 2.86 mg buccal, Groups A and B", "value": "35-40%"}, {"measurement": "extent of maximum FSH suppression", "setting": "FSH [6]", "value": 12.5, "unit": "%"}, {"measurement": "increase in prolactin levels compared to baseline", "setting": "prolactin; end of the study (day 13), Group A", "value": 29.8, "unit": "%"}, {"measurement": "increase in prolactin levels compared to baseline", "setting": "prolactin; end of the study (day 16), Group B", "value": 16, "unit": "%"}, {"measurement": "SHBG concentration higher than at baseline on day 1", "setting": "[7]; Group A, day 13", "value": 22.2, "unit": "%"}, {"measurement": "SHBG concentration higher than at baseline on day 1", "setting": "[7]; Group B, day 16", "value": 41.2, "unit": "%"}]}
